The values that follow come from patent US4755594A, “N^6 -substituted adenosines” (Warner-Lambert Company, priority 1986, dated 1988).

Data set [1] can be described thus: Mouse Activity and Screen Test Procedure (MAST): inhibition of spontaneous locomotion. The class given is in vivo, Swiss-Webster male mice. The settings on record: IP, 1 h, read-out: Inhibition of motor activity. An excerpt:
(§1) The compounds of the invention are new chemical substances which are useful as pharmaceutical agents for the treatment of psychoses. The antipsychotic activity of representative compounds of the invention was established by the Mouse Activity and Screen Test Procedure (MAST) described below. Animals Nine unfasted Swiss-Webster male mice weighing 20-30 g are equally divided into three groups for each drug dose to be tested. That is, data for each dose level was generated by three separate groups of three mice each. Drugs A minimum of three dose levels (10, 30, and 100 mg/kg) are tested for each drug. Treatments are administered intraperitoneally one hour prior to testing. All dosages are calculated as parent compound and given in volumes of 10 ml/kg. Compounds are dissolved or suspended in 0.2% Methocel. Control animals are injected with Methocel. Testing A two part testing procedure is started one hour postinjection. First, the screen test (ST) is performed (see Pharmac. Biochem. Behav. 6, 351-353, 1977). Briefly this test consists of placing mice on individual wire screens which are then rotated 180 degrees at the start of a 60 second observation period. The number of mice falling off the inverted screen is recorded. Immediately following the screen test, the final phase of testing is initiated by placing each group of three mice in one actophotometer (Life Sciences, 22, 1067-1076, 1978). The actophotometer consists of a cylindrical chamber whose center is occupied by another cylinder which contains the illumination for six photocells located on the perimeter of the chamber. Six light-beam interruptions equal one count. Locomotor activity is recorded by computer at ten minute intervals for 60 minutes. Data The data obtained from the screen test are expressed as percent of mice falling off the screen. Data derived from locomotor activity of drug treated mice are compared to the activity of vehicle treated animals and are expressed as percent inhibition of spontaneous locomotion. All percentages reported for inhibition of locomotion (LI) are based upon data accumulated for one hour. Both phases of testing are graded: A=60-100%; C=31-59%; and N=0-30%. An overall dose rating is obtained by the following criteria: […]

Data set [2] in a line: Mouse Activity and Screen Test Procedure (MAST): screen test. The settings on record: IP. The data set is classed as in vivo, Swiss-Webster male mice.
From the text: as §1, with “recorded.” for “recorded. Immediately following the screen test, the final phase of testing is initiated by placing each group of three mice in one actophotometer (Life Sciences, 22, 1067-1076, 1978). The actophotometer consists of a cylindrical chamber whose center is occupied by another cylinder which contains the illumination for six photocells located on the perimeter of the chamber. Six light-beam interruptions equal one count. Locomotor activity is recorded by computer at ten minute intervals for 60 minutes.”

A short description of data set [3]: Antihypertensive evaluation (AHP3), aortic blood pressure in conscious rats. The class given is in vivo. The settings on record: conscious rat. An excerpt:
ANTIHYPERTENSIVE EVALUATION (AHP3)
This test procedure is described in the following paragraphs.
A Method for the Direct Monitoring of Aortic Blood
Pressure and Heart Rate from Conscious Rats
The continuous monitoring of pulsatile blood pressure (BP) from unrestrained conscious rats surgically equipped with polyethylene cannulas was accomplished by means of a computer assisted data capture scheme (CADCS). The basic elements of the methodology are the cannulation procedure and the CADCS.
Rats were anesthetized with Telazol (1:1 tiletamine HCl and zolazepam HCl); 20-40 mg/kg IM and the descending aorta exposed via a midline incision. Cannulas fabricated from polyethylene tubing were inserted into the aorta via an undersized puncture hole below the renal arteries. The puncture hole was made by a 23 G disposable needle with a section of the aorta clamped off above and below the puncture site. The cannulas, consisting of a PE100 (0.86 mm ID) body and a PE50 (0.58 mm ID) tip, were attached to a trocar, inserted through the psoas muscle, and passed subcutaneously along the midline of the back and externalized between the ears. The cannulas were anchored to the psoas muscle and between the scalulae (3-0 green braided suture). The midline incision was closed in two steps (muscle first, skin second) using continuous over-and-over sutures (4-0 chronic). Each rat was then given penicillin 30,000 units subcutaneously (Penicillin G Procaine Sterile Suspension).
The rats were fitted with a harness-spring-swivel assembly designed to protect the cannula and to provide the rat relative freedom of movement. The harnesses were fabricated from nylon hook and loop tape cemented to a metal plate to which spring wires (18-8 stainless steel) were attached to brass swivels. Each polyethylene cannula was channeled through a spring and connected through a swivel to a pressure transducer (Model P23Gb; Statham Instruments; Hato Rey, Puerto Rico) and an infusion pump (Sage model 234-7; Orion Research, Cambridge MA) by means of PE100 tubing. While on test, each rat received a continuous slow infusion of heparinized saline solution (approximately 400 μl or 40 units of heparin per 24 hours period) to prevent clot formation. Additional "flushes" of the cannula with heparinized saline were carried out when the aortic pulse pressure (systolic minus diastolic) was less than 25 mm Hg.
The pulsatile blood pressure and heart rate of each of 32 rats was monitored every minute by means of two in-laboratory microcomputers communicating directly with a data concentrator computer. The data were first stored on the data concentrator disk and then transferred to a magnetic tape for analysis and report generation by the main research computer. The overall scheme involved modulating the primary signal from the pressure transducer, generating the primary data set of the one-minute values for systolic, diastolic, and mean blood pressures and heart rate by the in-lab microcomputer and the storage, analysis, and report generation by the main research computer.
The transducers were connected to analog signal conditioning modules. The modules provided a regulated excitation voltage for the transducers, amplification as required to interface the microprocessors and an active low pass filter to compensate for the pressure wave form distortion produced by the flexible, fluid filled, narrow cannula. The distortion was 22-26 Hz and this provided a reliable estimate of both systolic and diastolic blood pressure.
The microcomputers (one for each of two groups of 16 rats) were connected to the input components through the module interface units, an analog-to-digital converter for the pressure wave form signal and the digital inputs for the dose and event marker switches. The microcomputer controlled the sequential acquisition of data from the modular interface units through an internal synchronous time-of-day clock/time base generator. […]

As to `OC[C@H]1O[C@@H](n2cnc3c(NCC4(c5cccs5)CC4)ncnc32)[C@H](O)[C@@H]1O` [Example 3, N6-((1-Thien-2-ylcyclopropyl)methyl)adenosine], the inhibition in vivo at 0.03 mg/kg in data set [1] (0.03 mg/kg) was determined as 17%. Also, the inhibition in vivo at 0.1 mg/kg in data set [1] (0.1 mg/kg) is 40%. Also, the inhibition in vivo at 0.3 mg/kg in data set [1] (0.3 mg/kg) is 70%. Further, in data set [1], the inhibition in vivo at 1 mg/kg came out at 85%. Besides, in data set [1], the inhibition in vivo at 3 mg/kg came out at 89%. Moreover, the inhibition in vivo at 10 mg/kg in data set [1] was found to be 93%. The “Inhibition of screen test failure” value in data set [2] (0.03 mg/kg), in data set [2] (0.1 mg/kg), in data set [2] (0.3 mg/kg), in data set [2] (1.0 mg/kg), in data set [2] (3 mg/kg) and in data set [2] (10 mg/kg) was 0% in each case. The “Maximum BP ↓ MAP” value in data set [3] (3 mg/kg) is on record as 43%.

For the compound `OC[C@H]1O[C@@H](n2cnc3c(NCC4(c5ccccc5)CCC4)ncnc32)[C@H](O)[C@@H]1O` [Example 7, N6-((1-Phenylcyclobutyl)methyl)adenosine], in data set [1], the inhibition in vivo at 1 mg/kg is 5%, the inhibition in vivo at 3 mg/kg came to 21% and the inhibition in vivo at 10 mg/kg was found to be 82%. Moreover, in data set [2] (1.0 mg/kg), the “Inhibition of screen test failure” value worked out at 0%. The “Inhibition of screen test failure” value in data set [2] (3 mg/kg) was 0%. Moreover, the “Inhibition of screen test failure” value in data set [2] (10 mg/kg) was 0%. For the same compound, in data set [3] (10 mg/kg), the “Maximum BP ↓ MAP” value came out at 32%.

`OC[C@H]1O[C@@H](n2cnc3c(NCC4(c5cccs5)CCC4)ncnc32)[C@H](O)[C@@H]1O` [Example 9, N6-((1-Thien-2-ylcyclobutyl)methyl)adenosine]: the inhibition in vivo at 3 mg/kg in data set [1] amounted to 43%. The inhibition in vivo at 10 mg/kg in data set [1] stood at 86%. Besides, the inhibition in vivo at 30 mg/kg in data set [1] (30 mg/kg) is 94%. Further, the “Inhibition of screen test failure” value in data set [2] (3 mg/kg), in data set [2] (10 mg/kg) and in data set [2] (30 mg/kg) was 0% throughout. In addition, the “Maximum BP ↓ MAP” value in data set [3] (3 mg/kg) came out at 10%.
